Assay results taken from patent US9777048B2, “Use of PEDF-derived polypeptides for treating osteoarthritis” (MacKay Memorial Hospital, priority 2012, dated 2017).

Key:
[1] = tested on: chondrocytes in damaged articular cartilage (MIA-induced osteoarthritis); experiment: MIA-induced knee osteoarthritis in rats: chondrocyte proliferation and cartilage regeneration in vivo; design: species or system Sprague-Dawley rats; settings: for BrdU/Aggrecan Labeling Index (%): rat MIA knee, 0.2 mM peptide in 25 μl of 5% HA (HA group: 5% HA alone), intra-articular on day 8, 12, 16, 20 post-MIA, mean±SEM, *P<0.0001 vs vehicle/HA; for Chondrocytes in cartilage layers, microscopic images: knee specimens 25 days after MIA injection, FIG. 2; for H&E histology of knee joint (morphological changes associated with osteoarthritis): specimens day-18 and day-25 post-MIA injection, FIG. 1
Procedure: Animal models of osteoarthritis were established by intra-articular injection of MIA. Specifically, adult 10-wk-old male Sprague-Dawley rats (initial body wt=312±11 g) were anesthetized with an intraperitoneal injection of xylazine (10 mg/kg), followed by a single intra-articular injection of MIA (1 mg of MIA in 25 μl of sterile saline) in the right knee. In particular, the MIA solution was injected through the patellar ligament by using a 27G needle with the leg flexed at a 90° angle at the knee.
For the detection of in vivo cell proliferation, BrdU was reconstituted in DMSO as stock (80 mM). 150 μl of BrdU mixed with 350 μl of PBS was intraperitoneally injected into rat at 16 hours prior to euthanasia. DNA synthesis was then assessed by BrdU labeling with anti-BrdU antibodies according to procedures set forth below.
The knee joints were dissected and the surrounding soft tissue was removed. Specimens were fixed in 4% paraformaldehyde and then decalcified with Shandon TBD-2 decalcifier (Thermo Scientific; Logan, Utah). The joints were then sectioned mid-sagittally and embedded in paraffin blocks. Sections (5 μm in thickness) were longitudinally cut.
Before use, fixed samples were de-pa raffinized in xylene and rehydrated in a graded series of ethanol. The sample were then stained with hematoxylin and eosin (H&E) or used for immunohistochemical examination. 20 sections per knee were carefully prepared so as to include the most severely degenerated area.
Paraffin-embedded joint specimens were deparaffinized in xylene and rehydrated in a graded series of ethanol. Deparaffinized specimens were then exposed to 1 N HCl at room temperature for 1 hour for subsequent immunofluorescence study.
(§1) For immunofluorescence study, the specimens were blocked with 10% goat serum and 5% BSA for 1 hour. Immunostaining was done using primary antibodies against aggrecan (1:100 dilution), type II collagen (1:100 dilution), and BrdU (1:100 dilution) at 37° C. for 2 hours, followed by incubation with the appropriate rhodamine- or FITC-conjugated donkey IgG for 1 hour at room temperature. Nuclei were located by counterstaining with Hoechst 33258 for 7 min. Images were captured using a Zeiss epifluorescence microscope with a CCD camera. Blinded quantification was performed in triplicate by manually counting cells from 20 randomly-selected fields in each section.
Knee osteoarthritis is a common chronic degenerative disease characterized by loss of articular cartilage. Injection of mono-iodoacetate (MIA), an inhibitor of glycolysis, into the femorotibial joint space of rodents has been reported to induce loss of articular cartilage similar to that noted in human OA. It has been established that extensive chondrocyte degeneration/necrosis usually arises at 7 days after MIA injection. Therefore, PEDF peptide treatment was started on day 8 post-MIA injection, so as to elucidate whether the present PEDF peptides promote cartilage regeneration.
Rats were randomly assigned to 6 experimental groups (n=6, each group) and treated as follows. In the HA group, rats received 25 μl of 5% hyaluronic acid injection. In the Vehicle/HA group, rats were treated with DMSO vehicle re-dissolved in 25 μl of 5% HA. As to the 29-mer/HA, 24-mer/HA, 20-mer/HA, and 18-mer/HA groups, rats received 0.2 mM PEDF peptide (29-mer, 24-mer, 20-mer or 18-mer) re-dissolved in 25 μl of 5% HA. Treatments were applied by way of a single intra-articular injection once on day-8, 12, 16 and 20, respectively, post-MIA injection.
Quantitative analysis was performed as described above from 3 sections per knee joint specimen, and 6 rats at each group. The BrdU/aggrecan labeling index (%) was computed as the number of BrdU- and aggrecan-double positive cells divided by the total number of aggrecan-positive cells. Results are summarized in Table 1; *P<0.0001 versus the vehicle/HA group.

[2] = tested on: primary chondrocytes from rat articular cartilage; experiment: Primary articular chondrocyte proliferation in vitro; assay type: cell-based, Sprague-Dawley rats; settings: 50 nM peptide; for Aggrecan Labeling Index (%): rat articular chondrocyte monolayer culture, 12 days, mean±SEM, *P<0.01 vs untreated
Procedure: Articular cartilage was harvested from femoral condyles (the anterior, posterior and lateral areas) of adult 8-wk-old male Sprague-Dawley rats. Care was taken to avoid contamination with synovium and to disruption of the bony structures during the sampling process. Dissected tissue was cut into small (about 0.5 mm^3) pieces and digested sequentially by pronase (70 U/ml, 1 hour at 37° C.) and collagenase (300 U/ml, 3 hours at 37° C.). After digestion, collagenase was removed by a single wash in sterile phosphate-buffered saline (PBS), followed by two further washes in DMEM supplemented with 2% FBS. For primary culture, 6000 trypan blue-negative cells per well were plated on 10 μg/ml fibronectin-coated coverslips in a 6-well plate in 10% FBS-DMEM supplemented with 1% penicillin/streptomycin. The next day, the medium was changed to the standard expansion medium (consisting of 10% FBS-DMEM, 0.1 mM ascorbic acid, 0.5 mg/ml L-glucose, 100 mM HEPES, 1 mM sodium pyruvate, 2 mM L-glutamine and antibiotics) supplemented with or without 50 nM PEDF peptide). The medium was replaced every 3 days for 12 days.
as §1
Primary chondrocytes were isolated from rat articular cartilage and cultivated in the presence or absence of the present PEDF peptides to elucidate the stimulating effect of the present PEDF peptides on chondrocyte proliferation.
By contrast, in the vehicle group, the colonies are much smaller in the absence of PEDF peptides. The chondrocyte identity of cells within the colony was confirmed by aggrecan immunostaining (FIG. 4A, inserts). The level of aggrecan-positive cells in the monolayer culture (FIG. 4B) were quantified from 20 randomly selected fields, and the aggrecan labeling index (%) was computed as the number of aggrecan-labeled cells divided by the total number of cells (nucleus labeling by Hoechst 33258). Results are summarized in Table 2; *P<0.01 versus untreated cells.

[3] = tested on: mesenchymal stem cells (MSCs); experiment: Chondrogenic differentiation of MSCs: aggrecan immunostaining; assay type: cell-based, Sprague-Dawley rats; settings: rat MSCs in chondrogenic medium plus 50 nM peptide, 1 week; mean±SEM; *P<0.0001 vs vehicle
Procedure: Adult 8-wk-old male Sprague-Dawley rats were anesthetized with an intraperitoneal injection of xylazine (10 mg/kg). Femurs were aseptically harvested, washed in a mixture of PBS and antibiotics for 5 minutes, dissected of all soft tissue, transected at their epiphysis, and their marrow cavity was rinsed repeatedly with a mixture of heparin and DMEM. The harvested cells were centrifuged at 1000×g for 10 minutes. Cell pellets were resuspended with DMEM, and then the cell suspension was transferred to a 15-ml centrifuge tube containing 5 ml of Percoll (1.073 g/ml). After centrifugation at 1500×g for 30 minutes, the mononuclear cells in the middle layer were separated, washed three times with PBS and then resuspended in low-glucose DMEM with 10% heat-inactivated FBS and 1% penicillin/streptomycin. Cells were then incubated with 95% air and 5% CO2 at 37° C.; the medium was replaced every 4 days. Unattached cells were discarded and adherent cells were retained. The primary mesenchymal stem cells (MSCs) grew to approximately 80%-90% confluence after culture for 1 week.
For inducing the chondrogenic differentiation of MSCs, 5×10^5 expanded MSCs were exposed to chondrogenic medium (high-glucose DMEM with 100 nM dexamethasone, 0.17 mM ascorbic acid-2 phosphate, 10 μg/ml of insulin, 5 μg/ml of transferrin, 5 ng/ml selenium, 1 mM sodium pyruvate, 2 mM L-glutamine, and 2% FBS) supplemented with 10 ng/ml TGF-β2 (R&D Systems; Minneapolis, Minn.). […]
For immunofluorescence study, the specimens were blocked with 10% goat serum and 5% BSA for 1 hour. […] Blinded quantification was performed in triplicate by manually counting cells from 20 randomly-selected fields in each section.
Immunostaining for aggrecan and type II collagen was also performed to investigate the pro-differentiation activity of the present PEDF peptides. The level of aggrecan-positive cells were quantified from 20 randomly selected fields, and the aggrecan labeling index (%) was computed as the number of aggrecan-labeled cells divided by the total number of cells (nucleus labeling by Hoechst 33258). […]

osteoarthritis = experiment: Treating osteoarthritis in a subject (experiments of prior application Ser. No. 13/428,996 and present application); assay type: in vivo; settings: stated without data; based on prior and present application
Excerpt: Prior experiments conducted by the present inventors, such as those disclosed in the co-pending U.S. application Ser. No. 13/428,996 (the entirety of which is incorporated herein by reference) and experiments provided hereinbelow, reveal that several short, synthetic PEDF peptides derived from the 39-mer, are capable of treating osteoarthritis in a subject.

Row | Substance | BrdU/Aggrecan Labeling Index (%) [1] | Aggrecan Labeling Index (%) [2] | Aggrecan Labeling Index (%) [3] | Effectiveness in treating osteoarthritis in a subject (osteoarthritis) | other results
1 | hyaluronic acid [HA, reference compound] | 0.71 ± 0.28% |  |  |  | 
2 | SLGAEQRTESIIHRALYYDLISSP (optionally in 5% hyaluronic acid) [24-mer, residues 93-116 of human PEDF; /HA = re-dissolved in 5% hyaluronic acid] | 16.0 ± 2.03* % | 50.0 ± 2.9* % | 78.8 ± 4.3* % |  | 
3 | SLGAEQRTESIIHRALYYDL (optionally in 5% hyaluronic acid) [20-mer, residues 93-112 of human PEDF; /HA = re-dissolved in 5% hyaluronic acid] | 17.5 ± 2.7* % | 50.1 ± 3.6* % | 78.7 ± 3.8* % |  | Chondrocyte growth and colony formation ([2]; vs vehicle group, FIG. 4A): chondrocytes grew faster and aggregated into huge three dimensional colonies; Aggrecan-positive cells among all cells (aggrecan/Hoechst 33258 dual staining) ([1]; FIG. 3 middle panels): over 95%; Chondrocytes in cartilage layers, microscopic images [1]: occupation of large numbers of newly generated chondrocyte throughout the cartilage; H&E histology of knee joint (morphological changes associated with osteoarthritis) [1]: the cartilage surface is smoother and the cartilage and subchondral bone are relatively integral; Aggrecan-positive signals in cartilage (immunostaining) ([1]; superficial, transitional and deep zone, vs vehicle-treated knee, FIG. 3 left): heavily accumulated; Numbers of BrdU-positive cells ([1]; vs vehicle/HA group, FIG. 3 right panels): increased significantly
4 | EQRTESIIHRALYYDLISSPDIHGT [25-mer, peptide lacking the SLGA residues] |  |  |  | ineffective | 
5 | ALSALSLGAEQRTESIIHRALYYDLISSPDIHGT [34-mer, corresponds to residues 88-121 of human PEDF] |  |  |  | effective | 
6 | EQRTESIIHRALYYDLIS (optionally in 5% hyaluronic acid) [18-mer, peptide lacking the SLGA residues; /HA = re-dissolved in 5% hyaluronic acid, reference compound] | does not elicit such promoting effect | 31.8 ± 2.6% |  | fails to elicit any protection against osteoarthritis | BrdU/Aggrecan Labeling Index (%) ([1]; listed as 18-mer/HA): 0.67 ± 0.33%; H&E histology of knee joint (morphological changes associated with osteoarthritis) [1]: morphological changes associated with osteoarthritis (including the reduction of cartilage, the superficial fibrosis of cartilage and subchondral bone collapse) is noted
7 | SLGAEQRTESIIHRALYYDLISSPDIHGT (optionally in 5% hyaluronic acid) [29-mer, residues 93-121 of human PEDF; /HA = re-dissolved in 5% hyaluronic acid] | 15.0 ± 2.38* % | 52.2 ± 5.2* % | 76.8 ± 5.0* % |  | Chondrocytes in cartilage layers, microscopic images [1]: occupation of large numbers of newly generated chondrocyte throughout the cartilage
